ChEMBL document CHEMBL1139937, “Novel 3-galloylamido-N'-substituted-2,6-piperidinedione-N-acetamide peptidomimetics as metalloproteinase inhibitors” (Bioorg Med Chem Lett, 2007)

Legend:
Aminopeptidase N = biological target: T1, Aminopeptidase N (Sus scrofa, UniProt P15145); experiment: Inhibition of pig kidney microsomal aminopeptidase assessed as liberation of p-nitroanilide
T1 sequence (P15145 whole entry): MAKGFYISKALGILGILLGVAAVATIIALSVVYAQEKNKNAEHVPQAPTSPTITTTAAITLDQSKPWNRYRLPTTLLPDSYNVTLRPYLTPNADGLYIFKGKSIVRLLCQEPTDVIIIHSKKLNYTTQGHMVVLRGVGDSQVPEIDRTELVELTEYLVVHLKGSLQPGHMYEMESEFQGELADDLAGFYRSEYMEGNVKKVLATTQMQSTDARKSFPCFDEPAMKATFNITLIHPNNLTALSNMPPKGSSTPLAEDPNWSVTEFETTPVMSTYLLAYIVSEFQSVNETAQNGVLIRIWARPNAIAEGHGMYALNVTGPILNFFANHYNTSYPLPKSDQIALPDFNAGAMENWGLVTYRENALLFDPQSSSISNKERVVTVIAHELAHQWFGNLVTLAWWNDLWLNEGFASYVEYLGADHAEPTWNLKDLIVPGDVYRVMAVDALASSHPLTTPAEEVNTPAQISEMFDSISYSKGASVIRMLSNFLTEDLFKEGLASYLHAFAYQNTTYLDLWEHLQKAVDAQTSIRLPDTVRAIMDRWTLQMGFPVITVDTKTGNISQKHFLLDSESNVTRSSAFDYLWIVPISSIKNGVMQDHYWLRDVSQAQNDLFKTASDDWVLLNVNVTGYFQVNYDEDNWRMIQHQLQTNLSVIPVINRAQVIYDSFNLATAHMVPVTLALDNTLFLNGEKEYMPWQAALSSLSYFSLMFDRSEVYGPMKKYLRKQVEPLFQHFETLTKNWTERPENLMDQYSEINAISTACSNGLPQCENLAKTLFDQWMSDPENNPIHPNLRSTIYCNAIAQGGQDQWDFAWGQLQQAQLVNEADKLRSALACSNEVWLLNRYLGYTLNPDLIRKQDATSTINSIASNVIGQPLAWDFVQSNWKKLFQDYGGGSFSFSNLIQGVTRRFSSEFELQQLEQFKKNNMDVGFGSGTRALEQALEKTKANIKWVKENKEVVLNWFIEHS

[1] = biological target: 72 kDa type IV collagenase (Homo sapiens, UniProt P08253); experiment: Inhibition of MMP2 after 30 mins
72 kDa type IV collagenase, sequence (P08253 whole entry): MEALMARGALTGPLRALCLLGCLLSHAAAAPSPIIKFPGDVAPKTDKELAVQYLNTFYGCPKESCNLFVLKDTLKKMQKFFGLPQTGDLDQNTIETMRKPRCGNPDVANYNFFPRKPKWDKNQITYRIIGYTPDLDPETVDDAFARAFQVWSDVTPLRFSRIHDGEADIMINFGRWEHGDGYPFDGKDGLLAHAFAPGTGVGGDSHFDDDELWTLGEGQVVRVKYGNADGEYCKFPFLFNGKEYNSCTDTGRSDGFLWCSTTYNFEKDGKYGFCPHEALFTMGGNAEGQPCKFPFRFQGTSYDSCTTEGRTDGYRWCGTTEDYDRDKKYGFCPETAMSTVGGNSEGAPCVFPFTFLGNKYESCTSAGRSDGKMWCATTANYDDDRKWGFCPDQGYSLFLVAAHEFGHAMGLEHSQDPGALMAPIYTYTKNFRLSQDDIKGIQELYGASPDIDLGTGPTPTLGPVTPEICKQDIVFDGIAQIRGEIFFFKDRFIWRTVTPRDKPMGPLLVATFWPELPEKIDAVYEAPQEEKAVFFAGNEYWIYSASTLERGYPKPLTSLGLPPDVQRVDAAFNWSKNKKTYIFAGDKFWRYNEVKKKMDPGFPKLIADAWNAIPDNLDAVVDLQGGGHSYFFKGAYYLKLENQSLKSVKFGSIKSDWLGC

IC50 (Aminopeptidase N) [µM] | IC50 [1] [nM] | SMILES
49.3 | 4300 | CC[C@H](C)[C@H](NC(=O)CN1C(=O)CC[C@H](NC(=O)c2cc(OC)c(OC)c(OC)c2)C1=O)C(=O)OC
11 | 1300 | COC(=O)[C@H](Cc1ccccc1)NC(=O)CN1C(=O)CC[C@H](NC(=O)c2cc(OC)c(OC)c(OC)c2)C1=O
20.7 | 1200 | COC(=O)[C@H](CCSC)NC(=O)CN1C(=O)CC[C@H](NC(=O)c2cc(OC)c(OC)c(OC)c2)C1=O
55.4 | 4400 | COC(=O)CNC(=O)CN1C(=O)CC[C@H](NC(=O)c2cc(OC)c(OC)c(OC)c2)C1=O
44.8 | 300 | COC(=O)[C@H](Cc1ccc(O)cc1)NC(=O)CN1C(=O)CC[C@H](NC(=O)c2cc(OC)c(OC)c(OC)c2)C1=O
46.2 | 3800 | COC(=O)[C@H](CC(C)C)NC(=O)CN1C(=O)CC[C@H](NC(=O)c2cc(OC)c(OC)c(OC)c2)C1=O
50.3 | 1700 | COC(=O)[C@H](CS)NC(=O)CN1C(=O)CC[C@H](NC(=O)c2cc(OC)c(OC)c(OC)c2)C1=O
38.1 | 600 | COC(=O)[C@H](CCCCNC(=O)c1ccccc1)NC(=O)CN1C(=O)CC[C@H](NC(=O)c2cc(OC)c(OC)c(OC)c2)C1=O
53.7 | 2200 | COC(=O)CCNC(=O)CN1C(=O)CC[C@H](NC(=O)c2cc(OC)c(OC)c(OC)c2)C1=O
63.4 | 10600 | COC(=O)CN1C(=O)CC[C@H](NC(=O)c2cc(OC)c(OC)c(OC)c2)C1=O
21.7 | 500 | COC(=O)C[C@H](NC(=O)CN1C(=O)CC[C@H](NC(=O)c2cc(OC)c(OC)c(OC)c2)C1=O)C(=O)OC
43.1 | 1200 | COC(=O)[C@H](Cc1c[nH]c2ccccc12)NC(=O)CN1C(=O)CC[C@H](NC(=O)c2cc(OC)c(OC)c(OC)c2)C1=O
18.9 | 1200 | COC(=O)[C@H](C)NC(=O)CN1C(=O)CC[C@H](NC(=O)c2cc(OC)c(OC)c(OC)c2)C1=O
50 | 15600 | COC(=O)[C@](C)(Cl)NC(=O)CN1C(=O)CC[C@H](NC(=O)c2cc(OC)c(OC)c(OC)c2)C1=O
21.4 | 1000 | COC(=O)[C@@H](NC(=O)CN1C(=O)CC[C@H](NC(=O)c2cc(OC)c(OC)c(OC)c2)C1=O)C(C)C
49.8 | 4000 | COc1cc(C(=O)N[C@H]2CCC(=O)N(CC(=O)O)C2=O)cc(OC)c1OC
46.2 | 1400 | COC(=O)[C@@H](Cc1ccccc1)NC(=O)CN1C(=O)CC[C@H](NC(=O)c2cc(OC)c(OC)c(OC)c2)C1=O
51.9 | 1800 | COC(=O)[C@@H](NC(=O)CN1C(=O)CC[C@H](NC(=O)c2cc(OC)c(OC)c(OC)c2)C1=O)[C@@H](C)O
– | 3400 | CC(C)C[C@H](NC(=O)[C@@H](O)[C@H](N)Cc1ccccc1)C(=O)O [UBENIMEX]
5.2 | 13000 | COC(=O)[C@H](Cc1cnc[nH]1)NC(=O)CN1C(=O)CC[C@H](NC(=O)c2cc(OC)c(OC)c(OC)c2)C1=O
3.1 | 2200 | COc1cc(C(=O)N[C@H]2CCC(=O)N(CC(=O)NO)C2=O)cc(OC)c1OC

SMILES | IC50 (Aminopeptidase N) [µM] | IC50 [1] [nM]
COC(=O)[C@H](CCCNC(N)=N[N+](=O)[O-])NC(=O)CN1C(=O)CC[C@H](NC(=O)c2cc(OC)c(OC)c(OC)c2)C1=O | 42 | 300
